# Literature values as cited in publication PMC5383348 (Trends in cancer, 2017).
# What was measured:
# [1] = test system: cultured cancer cell lines for triple-negative breast cancer and multiple myeloma
# [2] = test system: xenograft models for triple-negative breast cancer and multiple myeloma
# recombinant human GLS = settings: read-out: IC50 value against recombinant human GLS
structure (smiles),measurement,setting,value
O=C(Cc1cccc(OC(F)(F)F)c1)Nc1ccc(CCCCc2nnc(NC(=O)Cc3ccccn3)s2)nn1 [CB-839],efficacy against cultured cancer cell lines,[1],shown efficacy
same,efficacy against xenograft models,[2],shown efficacy
same,IC50,recombinant human GLS,< 50 nM
